Measured values from PubChem BioAssay (NCI).
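Compound exposure: 48 hours, 5 concentrations, 96-well plates. TGI marks complete inhibition of growth.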

Key:
Assay in all cases: DTP human tumour cell line panel, 48 h
SW-620 colon = system: SW-620 colon
OVCAR-3 ovarian = system: OVCAR-3 ovarian
EKVX NSCLC = system: EKVX NSCLC
A549 NSCLC = system: A549 NSCLC
NCI/ADR-RES ovarian = system: NCI/ADR-RES ovarian
NCI-H522 lung = system: NCI-H522 lung

Cc1ccc(/C=C2\Sc3scc(-c4ccccc4)[n+]3C2=O)cc1
TGI (SW-620 colon): > 52.4 µM
TGI (OVCAR-3 ovarian): > 100 µM
TGI (EKVX NSCLC): > 58.5 µM
TGI (A549 NSCLC): > 84.3 µM
TGI (NCI/ADR-RES ovarian): > 58 µM
TGI (NCI-H522 lung): 19.6 µM

COC(=O)C1(NC(=O)C(Cc2ccccc2)N(C(=O)OC(C)(C)C)C(=O)OC(C)(C)C)CCCC1 (stereo not drawn)
TGI (SW-620 colon): > 100 µM
TGI (EKVX NSCLC): > 100 µM
TGI (A549 NSCLC): > 100 µM
TGI (NCI/ADR-RES ovarian): > 100 µM

Cc1cccc(C2ON=C(c3ccccc3)N2C23CC4CC(CC(C4)C2)C3)c1 (stereo not drawn)
TGI (SW-620 colon): > 10 µM
TGI (OVCAR-3 ovarian): > 10 µM
TGI (EKVX NSCLC): > 10 µM
TGI (A549 NSCLC): > 10 µM
TGI (NCI/ADR-RES ovarian): > 10 µM
TGI (NCI-H522 lung): > 10 µM

CC(=O)OI1NC(=O)c2ccccc21
TGI (SW-620 colon): > 100 µM
TGI (OVCAR-3 ovarian): > 100 µM
TGI (EKVX NSCLC): > 100 µM
TGI (A549 NSCLC): > 100 µM
TGI (NCI/ADR-RES ovarian): > 100 µM
TGI (NCI-H522 lung): > 100 µM

O=c1[nH]/c(=C/c2ccc3c(c2)OCO3)c(=O)[nH]/c1=C/c1ccc2c(c1)OCO2
TGI (SW-620 colon): > 10 µM
TGI (OVCAR-3 ovarian): > 10 µM
TGI (EKVX NSCLC): > 10 µM
TGI (A549 NSCLC): > 10 µM
TGI (NCI/ADR-RES ovarian): > 10 µM
TGI (NCI-H522 lung): > 10 µM

C#CC[C@@H]1C(=O)N(Cc2ccc(OC)cc2)[C@@H](C(C)C)C(=O)N1Cc1ccc(OC)cc1
TGI (SW-620 colon): > 100 µM
TGI (OVCAR-3 ovarian): > 100 µM
TGI (EKVX NSCLC): 69 µM
TGI (A549 NSCLC): > 100 µM
TGI (NCI/ADR-RES ovarian): > 100 µM
TGI (NCI-H522 lung): 99.5 µM

CC(C)[C@@H]1CC[C@@H](C)C[C@H]1OC(=O)c1c2n(c3ccccc13)C[C@H]1OC(C)(C)O[C@@H]21
TGI (SW-620 colon): > 100 µM
TGI (OVCAR-3 ovarian): > 100 µM
TGI (EKVX NSCLC): 73.8 µM
TGI (A549 NSCLC): > 100 µM
TGI (NCI/ADR-RES ovarian): > 100 µM

CC1=NN(c2nc(N)nc(NS(=O)(=O)c3cc(C)c(Cl)cc3S)n2)C(C)(C)C1
TGI (SW-620 colon): > 10 µM
TGI (OVCAR-3 ovarian): > 10 µM
TGI (EKVX NSCLC): > 10 µM
TGI (A549 NSCLC): > 10 µM
TGI (NCI/ADR-RES ovarian): > 10 µM
TGI (NCI-H522 lung): > 10 µM

CC(C)=CCCC(C)(OC1OC(CO)C(O)C(O)C1O)C1CCC2(C)C1C(O)CC1C3(C)CCC(O)C(C)(C)C3C(OC3OC(CO)C(O)C(O)C3OC3OC(C)C(O)C(O)C3O)CC12C (stereo not drawn) (tested in a mixture with another compound)
TGI (SW-620 colon): > 75 µM
TGI (OVCAR-3 ovarian): > 75 µM
TGI (EKVX NSCLC): > 75 µM
TGI (A549 NSCLC): > 75 µM
TGI (NCI/ADR-RES ovarian): > 75 µM
TGI (NCI-H522 lung): > 75 µM

CC1=NN=C(C)C1N=Nc1ccc2nc(C)[nH]c2c1
TGI (SW-620 colon): > 100 µM
TGI (OVCAR-3 ovarian): > 73.6 µM
TGI (EKVX NSCLC): > 71.3 µM
TGI (A549 NSCLC): > 100 µM
TGI (NCI/ADR-RES ovarian): > 100 µM
TGI (NCI-H522 lung): > 100 µM

CCC(NC(C)c1ccccc1)C(=O)c1ccc(OCc2ccccc2)c(OCc2ccccc2)c1 (stereo not drawn)
TGI (SW-620 colon): > 100 µM
TGI (OVCAR-3 ovarian): > 100 µM
TGI (EKVX NSCLC): > 100 µM
TGI (A549 NSCLC): > 100 µM
TGI (NCI/ADR-RES ovarian): > 100 µM
TGI (NCI-H522 lung): > 100 µM
